Reference: PubChem BioAssay (NCI)
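Following 48 hours of exposure in 96-well plates, responses at five concentrations were used to interpolate endpoints linearly. GI50 marks 50% less growth. At the TGI there is no net growth.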

Tested on: SF-295 CNS
Assay: DTP human tumour cell line panel, 48 h

SMILES | GI50 [µM] | TGI [µM]
Clc1nc(Cl)c2ncn(Cc3ccccc3Cn3cnc4c(Cl)nc(Cl)nc43)c2n1 | 7.05 | 22.4
CS(=O)(=O)CS(=O)(=O)OCCCl | – | 554
CC(C)(C)c1cc(C(=O)/C=C/c2ccc(C(=O)O)cc2)cc(C(C)(C)C)c1 | – | 7.29
COc1ccc(-c2ccc(NNC(=O)c3ccc(F)cc3)nn2)cc1OC | > 100 | > 100
Cc1noc2c1-c1ccccc1C(c1ccc(Cl)cc1)=N[C@H]2CC(N)=O | 4.71 | > 100
O=C(N/N=C/c1ccc(O)cc1O)c1cccnc1 | 6.66 | > 100
O=C(NNc1cnccn1)c1nc2cc(F)ccc2n2cccc12 | 0.531 | > 100
NCCCOc1cc(Cl)ccc1NC(=O)c1cc2ccccc2cc1OCCCN | 1.66 | 3.42
C=C1C(=O)OC2C1CC(OC(C)=O)/C(C)=C/CCC1(C)OC21 (configuration not stated) | – | > 100
COc1cc(/C=C/C(=O)C(C(=O)/C=C/c2ccc(OC(=O)CCNC34CC5CC(CC(C5)C3)C4)c(OC)c2)C(=O)CCNC23CC4CC(CC(C4)C2)C3)ccc1OC(=O)CCNC12CC3CC(CC(C3)C1)C2 (configuration not stated) | 17.2 | 34.4
CCOC(=O)C1=C(N)Oc2c(sc3c(C)cccc23)C1c1ccc(F)cc1 (configuration not stated) | 0.297 | 2.41
NC(N)=N/N=C(\N=Nc1ccccc1)c1ccc(Cl)cc1 | 1.82 | 6.39

Tested on: SNB-19 CNS
Assay: DTP human tumour cell line panel, 48 h

SMILES | GI50 [µM] | TGI [µM]
O=C(CCN1CCOCC1)Nc1cccc(-n2cc(-c3ccncc3)c(-c3ccc(Cl)c(O)c3)n2)c1 | 4.87 | 22.6
C=C(C)[C@@H]1CC[C@]2(C)[C@H](CC[C@@H]3[C@@H]([C@@](C)(O)CCC=C(C)C)CC[C@]32C)[C@@]1(C)CCC(=O)O | 18.8 | 34.9
c1ccc(NCCSc2nc3ccccc3s2)cc1 | – | > 100
Oc1ccc(Oc2cnc3ccccc3n2)cc1 | > 100 | > 100
Cc1ccc2occ/c(=N\Nc3ccccc3)c2c1 | – | > 100
CC(=O)NC1CONC1=O (configuration not stated) | – | > 100
Oc1ccc(N=Nc2nccs2)c(O)c1 | 11.5 | 53.1
COc1cc(/C=C/C(=O)Oc2ccccc2)ccc1C(=O)O/C=C/c1ccccc1 | – | > 100
CC(Cl)CN1c2ccccc2Sc2ccc(Cl)cc21 (configuration not stated) | – | > 10
O=C1c2ccccc2C(=O)c2c(NCCN=Cc3ccccc3O)cccc21 | 4.31 | > 54.5
Oc1ccc(/C=C/c2cc(O)cc3c2C(c2cc(O)cc(O)c2)C(c2ccc(O)c(O)c2)O3)cc1 (configuration not stated) | – | 54.3
CC1(C)N=C(N)N=C(N)N1c1cccc(OCCOc2cccc([N+](=O)[O-])c2)c1 | 4.88 | > 100
CCc1nc(Cl)c(Cl)c(Cl)n1 | – | > 100
O=[N+]([O-])c1ccc(Sc2c3ccccc3nc3ccccc23)cn1 | – | > 66.6
CNC(C)[C@H]1CCC2C3CC=C4C(=O)[C@@H](NC(=O)C=C(C)C)CC[C@]4(C)C3CC[C@@]21C (some centres not stated) | 5.26 | 17.4
Clc1nc(Cl)c2ncn(Cc3ccccc3Cn3cnc4c(Cl)nc(Cl)nc43)c2n1 | 2.9 | > 26.1
CS(=O)(=O)CS(=O)(=O)OCCCl | – | 969
CC(C)(C)c1cc(C(=O)/C=C/c2ccc(C(=O)O)cc2)cc(C(C)(C)C)c1 | – | 5.74
COc1ccc(-c2ccc(NNC(=O)c3ccc(F)cc3)nn2)cc1OC | > 100 | > 100
Cc1noc2c1-c1ccccc1C(c1ccc(Cl)cc1)=N[C@H]2CC(N)=O | 11 | > 100
O=C(N/N=C/c1ccc(O)cc1O)c1cccnc1 | 5.8 | > 100
O=C(NNc1cnccn1)c1nc2cc(F)ccc2n2cccc12 | 0.7 | > 100
NCCCOc1cc(Cl)ccc1NC(=O)c1cc2ccccc2cc1OCCCN | 1.62 | 3.21
C=C1C(=O)OC2C1CC(OC(C)=O)/C(C)=C/CCC1(C)OC21 (configuration not stated) | – | > 100
COc1cc(/C=C/C(=O)C(C(=O)/C=C/c2ccc(OC(=O)CCNC34CC5CC(CC(C5)C3)C4)c(OC)c2)C(=O)CCNC23CC4CC(CC(C4)C2)C3)ccc1OC(=O)CCNC12CC3CC(CC(C3)C1)C2 (configuration not stated) | 4.07 | 15.9
CCOC(=O)C1=C(N)Oc2c(sc3c(C)cccc23)C1c1ccc(F)cc1 (configuration not stated) | 0.621 | 16.3
NC(N)=N/N=C(\N=Nc1ccccc1)c1ccc(Cl)cc1 | 12 | 35.5

Tested on: SN12C renal
Assay: DTP human tumour cell line panel, 48 h

SMILES | GI50 [µM] | TGI [µM]
O=C(CCN1CCOCC1)Nc1cccc(-n2cc(-c3ccncc3)c(-c3ccc(Cl)c(O)c3)n2)c1 | 3.74 | 23.6
C=C(C)[C@@H]1CC[C@]2(C)[C@H](CC[C@@H]3[C@@H]([C@@](C)(O)CCC=C(C)C)CC[C@]32C)[C@@]1(C)CCC(=O)O | 17.2 | 40.5
c1ccc(NCCSc2nc3ccccc3s2)cc1 | – | > 100
Oc1ccc(Oc2cnc3ccccc3n2)cc1 | > 100 | > 100
Cc1ccc2occ/c(=N\Nc3ccccc3)c2c1 | – | > 100
CC(=O)NC1CONC1=O (configuration not stated) | – | > 100
Oc1ccc(N=Nc2nccs2)c(O)c1 | 9.42 | 38.7
COc1cc(/C=C/C(=O)Oc2ccccc2)ccc1C(=O)O/C=C/c1ccccc1 | – | > 100
CC(Cl)CN1c2ccccc2Sc2ccc(Cl)cc21 (configuration not stated) | – | > 10
O=C1c2ccccc2C(=O)c2c(NCCN=Cc3ccccc3O)cccc21 | 8.28 | > 54.1
Oc1ccc(/C=C/c2cc(O)cc3c2C(c2cc(O)cc(O)c2)C(c2ccc(O)c(O)c2)O3)cc1 (configuration not stated) | – | > 100
CC1(C)N=C(N)N=C(N)N1c1cccc(OCCOc2cccc([N+](=O)[O-])c2)c1 | 4.04 | > 100
CCc1nc(Cl)c(Cl)c(Cl)n1 | – | > 100
O=[N+]([O-])c1ccc(Sc2c3ccccc3nc3ccccc23)cn1 | – | 43.2
CNC(C)[C@H]1CCC2C3CC=C4C(=O)[C@@H](NC(=O)C=C(C)C)CC[C@]4(C)C3CC[C@@]21C (some centres not stated) | 2.46 | 10.5
Clc1nc(Cl)c2ncn(Cc3ccccc3Cn3cnc4c(Cl)nc(Cl)nc43)c2n1 | 2.31 | 7.24
CS(=O)(=O)CS(=O)(=O)OCCCl | – | 706
CC(C)(C)c1cc(C(=O)/C=C/c2ccc(C(=O)O)cc2)cc(C(C)(C)C)c1 | – | 6.6
COc1ccc(-c2ccc(NNC(=O)c3ccc(F)cc3)nn2)cc1OC | > 100 | > 100
Cc1noc2c1-c1ccccc1C(c1ccc(Cl)cc1)=N[C@H]2CC(N)=O | 38.2 | > 100
O=C(N/N=C/c1ccc(O)cc1O)c1cccnc1 | 3.58 | 69
O=C(NNc1cnccn1)c1nc2cc(F)ccc2n2cccc12 | 0.925 | > 100
NCCCOc1cc(Cl)ccc1NC(=O)c1cc2ccccc2cc1OCCCN | 1.58 | 3.23
C=C1C(=O)OC2C1CC(OC(C)=O)/C(C)=C/CCC1(C)OC21 (configuration not stated) | – | > 100
COc1cc(/C=C/C(=O)C(C(=O)/C=C/c2ccc(OC(=O)CCNC34CC5CC(CC(C5)C3)C4)c(OC)c2)C(=O)CCNC23CC4CC(CC(C4)C2)C3)ccc1OC(=O)CCNC12CC3CC(CC(C3)C1)C2 (configuration not stated) | 2.85 | 9.48
CCOC(=O)C1=C(N)Oc2c(sc3c(C)cccc23)C1c1ccc(F)cc1 (configuration not stated) | 1.11 | 14.5
NC(N)=N/N=C(\N=Nc1ccccc1)c1ccc(Cl)cc1 | 4.65 | 22.1
